Source: ChEMBL document CHEMBL3826918, “Recent developments of C-4 substituted coumarin derivatives as anticancer agents” (Eur J Med Chem, 2016)
One block for each compound: values may come before it.

Columns and labels:
MRC5 = assay: Cytotoxicity against human MRC5 cells assessed as reduction in cell viability measured after 48 hrs by MTT assay; type: functional, cell-based; conditions: MRC5, 48 h
A-375 = assay: Cytotoxicity against human A375 cells assessed as reduction in cell viability measured after 48 hrs by MTT assay; type: functional, cell-based; conditions: A-375, 48 h
[1] = Inhibition of TNF-alpha induced NF-kappaB transcriptional activity in HEK293 cells expressing NF-kappaB-Luc measured after 48 hrs by luciferase assay; type: cell-based; conditions: Homo sapiens, HEK293, 48 h
Steryl-sulfatase [2] = target: T1, Steryl-sulfatase (Homo sapiens, UniProt P08842); assay: Inhibition of sulphatase in human MCF7 cells assessed as inhibition of E1-STS activity; type: cell-based
T1 sequence (P08842 whole entry): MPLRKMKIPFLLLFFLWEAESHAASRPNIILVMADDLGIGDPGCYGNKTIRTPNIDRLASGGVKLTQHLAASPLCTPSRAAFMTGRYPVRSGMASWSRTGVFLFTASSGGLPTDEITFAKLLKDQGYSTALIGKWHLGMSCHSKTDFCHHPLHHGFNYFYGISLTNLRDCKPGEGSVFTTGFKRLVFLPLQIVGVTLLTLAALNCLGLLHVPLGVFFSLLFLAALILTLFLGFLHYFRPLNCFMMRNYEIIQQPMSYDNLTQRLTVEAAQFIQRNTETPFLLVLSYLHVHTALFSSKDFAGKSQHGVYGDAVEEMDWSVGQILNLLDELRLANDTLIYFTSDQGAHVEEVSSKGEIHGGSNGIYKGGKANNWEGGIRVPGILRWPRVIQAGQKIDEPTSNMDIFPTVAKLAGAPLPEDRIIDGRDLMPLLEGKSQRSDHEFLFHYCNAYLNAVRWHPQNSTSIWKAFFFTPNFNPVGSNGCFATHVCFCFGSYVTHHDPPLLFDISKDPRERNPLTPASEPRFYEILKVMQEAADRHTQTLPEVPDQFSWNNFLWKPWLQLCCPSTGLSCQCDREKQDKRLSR

[3] = Octanol-water partition coefficient, log P of the compound; type: physicochemical
MCF7 [4] = assay: Cytotoxicity against human MCF7 cells assessed as reduction in cell viability by MTT assay; type: functional, cell-based
MDA-MB-231 [5] = assay: Cytotoxicity against human MDA-MB-231 cells assessed as reduction in cell viability by MTT assay; type: functional, cell-based
[6] = Cytotoxicity against human hTERT-HME1 cells assessed as reduction in cell viability by MTT assay; type: functional, cell-based
Aromatase [7] = target: T2, Aromatase (Homo sapiens, UniProt P11511); type: cell-based, MCF7
T2 sequence (P11511 whole entry): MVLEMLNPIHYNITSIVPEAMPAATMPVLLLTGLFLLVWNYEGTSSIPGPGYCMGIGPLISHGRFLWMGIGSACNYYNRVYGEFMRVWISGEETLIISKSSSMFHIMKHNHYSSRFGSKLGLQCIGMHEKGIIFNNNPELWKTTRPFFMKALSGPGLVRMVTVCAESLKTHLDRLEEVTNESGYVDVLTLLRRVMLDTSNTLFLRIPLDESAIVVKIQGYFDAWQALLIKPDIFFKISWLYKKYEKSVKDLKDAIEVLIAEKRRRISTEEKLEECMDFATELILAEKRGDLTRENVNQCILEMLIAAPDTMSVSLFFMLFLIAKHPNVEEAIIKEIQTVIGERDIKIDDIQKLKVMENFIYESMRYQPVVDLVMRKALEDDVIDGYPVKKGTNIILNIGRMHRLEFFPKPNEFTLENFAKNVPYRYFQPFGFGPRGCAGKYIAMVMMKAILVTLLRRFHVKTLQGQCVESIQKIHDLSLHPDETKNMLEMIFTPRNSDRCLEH
Description: Inhibition of aromatase in human MCF7 cells using [1beta-3H]androstenedione as substrate measured after 1 hr by liquid scintillation counting method

Steryl-sulfatase [8] = target: T1, Steryl-sulfatase; assay: Inhibition of placental sulphatase (unknown origin)
Aromatase [9] = target: T2, Aromatase
Description: Inhibition of aromatase (unknown origin) preincubated for 10 mins in presence of NADPH generating system followed by addition of dibenzylfluorescein as substrate measured after 30 mins by fluorescence quenching assay

Casein kinase II = Casein kinase II (Homo sapiens, UniProt P19784+P67870+P68400); assay: Inhibition of recombinant human N-terminal 6His-tagged CK2 expressed in baculovirus infected Sf21 cells in presence of ATP by radiometric assay
Casein kinase II, sequence (P67870 whole entry): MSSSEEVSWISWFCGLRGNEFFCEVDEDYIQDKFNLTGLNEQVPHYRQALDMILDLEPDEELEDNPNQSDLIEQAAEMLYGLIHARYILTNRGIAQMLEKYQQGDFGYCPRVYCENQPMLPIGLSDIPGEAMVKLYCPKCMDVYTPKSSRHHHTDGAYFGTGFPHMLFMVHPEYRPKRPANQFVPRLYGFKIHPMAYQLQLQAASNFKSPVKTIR
Casein kinase II, sequence (P68400 whole entry): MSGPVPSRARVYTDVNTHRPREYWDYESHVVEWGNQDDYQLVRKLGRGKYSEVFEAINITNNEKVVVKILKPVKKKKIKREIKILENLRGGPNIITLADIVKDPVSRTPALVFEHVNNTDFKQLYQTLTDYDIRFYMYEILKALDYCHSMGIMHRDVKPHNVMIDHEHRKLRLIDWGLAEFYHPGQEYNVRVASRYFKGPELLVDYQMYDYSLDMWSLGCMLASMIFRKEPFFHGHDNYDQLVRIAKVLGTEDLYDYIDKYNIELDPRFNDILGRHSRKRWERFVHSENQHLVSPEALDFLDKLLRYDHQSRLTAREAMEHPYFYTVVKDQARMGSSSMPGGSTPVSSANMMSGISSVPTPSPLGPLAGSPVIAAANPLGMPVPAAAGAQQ
Casein kinase II, sequence (P19784 whole entry): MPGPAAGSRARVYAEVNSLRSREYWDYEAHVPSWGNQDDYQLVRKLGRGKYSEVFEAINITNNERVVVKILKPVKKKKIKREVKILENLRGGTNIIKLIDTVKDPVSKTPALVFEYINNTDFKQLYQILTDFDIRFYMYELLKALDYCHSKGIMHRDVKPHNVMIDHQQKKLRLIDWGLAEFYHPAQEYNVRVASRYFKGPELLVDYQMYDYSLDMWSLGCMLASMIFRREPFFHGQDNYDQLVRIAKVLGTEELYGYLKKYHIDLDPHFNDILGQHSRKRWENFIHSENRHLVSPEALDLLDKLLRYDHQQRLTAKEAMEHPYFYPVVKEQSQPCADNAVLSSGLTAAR

A549 = assay: Antiproliferative activity against human A549 cells over-expressing CK2 assessed as growth inhibition; type: functional, cell-based
[10] = Antiproliferative activity against human PC3 cells; type: functional, cell-based; conditions: PC-3
MCF7 [11] = assay: cells; conditions: Homo sapiens
Description: Antiproliferative activity against human MCF7 cells

MDA-MB-231 [12] = assay: cells; conditions: Homo sapiens
Description: Antiproliferative activity against human MDA-MB-231 cells

IC50 (Steryl-sulfatase [2]): 380 nM
Structure (SMILES): Cc1cc(=O)oc2ccc(OS(N)(=O)=O)cc12

IC50 (Aromatase [7]): 80 nM
Structure (SMILES): COc1ccc2c(Cc3ccccc3)c(-c3ccc(Cl)cc3)c(=O)oc2c1

IC50 (Steryl-sulfatase [8]): 1 nM
Structure (SMILES): NS(=O)(=O)Oc1ccc2c(c1)OC(=O)C1CCCCCCCCCCC21 (centres undefined)

IC50 (Aromatase [9]): 12.1 µM
logP [3]: 2.17
Structure (SMILES): COc1cc(C2CC(=O)Oc3cc4c(cc32)OCO4)cc(OC)c1OC(C)=O (centres undefined)

IC50 (Casein kinase II): 400 nM
IC50 (A549): 20.2 µM
Structure (SMILES): O=c1cc(C(F)(F)F)c2ccc(O)c(Cl)c2o1

Continued, compound first:

Structure (SMILES): O=c1cc(-c2ccccc2)c2ccc(O)c(O)c2o1
IC50 (MRC5): 47 µM
IC50 (A-375): 39 µM

Structure (SMILES): COc1cc(C2CC(=O)Oc3cc4c(cc32)OCO4)cc(OC)c1OC (centres undefined)
IC50 [1]: 110 nM

Structure (SMILES): COc1cc(C2CC(=O)Oc3cc4c(cc32)OCO4)cc(OC)c1O (centres undefined)
logP [3]: 2.17

Structure (SMILES): COc1ccc2c(CSC3=CC(=O)c4ccccc4C3=O)cc(=O)oc2c1
IC50 (MCF7 [4]): 11.2 µM
IC50 (MDA-MB-231 [5]): 9.5 µM
IC50 [6]: 18.1 µM

Structure (SMILES): O=C1C=C(SCc2cc(=O)oc3cc(O)ccc23)C(=O)c2ccccc21
IC50 (MCF7 [4]): 11.2 µM
IC50 (MDA-MB-231 [5]): 9.5 µM
IC50 [6]: 18.1 µM

Structure (SMILES): COc1cc(C2CC(=O)Oc3cc4c(c(OC)c32)OCO4)cc(OC)c1OC (centres undefined)
IC50 [1]: 110 nM

Structure (SMILES): O=C(c1ccc(OCCN2CCCCC2)cc1)c1c(-c2ccc(O)cc2)sc2cc(O)ccc12 [RALOXIFENE]
IC50 [10]: > 40 µM
IC50 (MCF7 [11]): 15.4 µM
IC50 (MDA-MB-231 [12]): 18.5 µM

Structure (SMILES): CC/C(=C(\c1ccccc1)c1ccc(OCCN(C)C)cc1)c1ccccc1 [TAMOXIFEN]
IC50 [10]: > 40 µM
IC50 (MCF7 [11]): 13.7 µM
IC50 (MDA-MB-231 [12]): 17.9 µM
